Data reported in ChEMBL document CHEMBL3045691, “Evaluation of rat kidney aldose reductase inhibitory activity of some N-acetyl dehydroalanine derivatives” (Med Chem Res, 2011).

molecular target: Aldo-keto reductase family 1 member B1 (Rattus norvegicus) (UniProt P07943); experiment: Inhibition of Rattus norvegicus albino (rat) kidney aldose reductase using D-L-glyceraldehyde as substrate assessed as decrease in NADPH concentration at 3.3 x 10^-6 M after 5 min by spectrophotometric analysis

SMILES | inhibition
C=C(NC(C)=O)C(=O)N1CCCC1 | 0%
C=C(NC(C)=O)C(=O)NCc1ccccc1OC | 0%
C=C(NC(C)=O)C(=O)NCc1ccccc1 | 2.48%
C=C(NC(C)=O)C(=O)N1CCCCC1 | 3.4%
C=C(NC(C)=O)C(=O)NCCC(C)C | 4.13%
C=C(NC(C)=O)C(=O)NCc1ccccc1Cl | 7.26%
C=C(NC(C)=O)C(=O)NCc1ccc(Cl)cc1 | 2.3%
C=C(NC(C)=O)C(=O)NCCCCl | 19.6%
C=C(NC(C)=O)C(=O)Nc1nnc(CC)s1 | 4.5%

The remaining lines, values ahead:

inhibition | SMILES
3.77% | C=C(NC(C)=O)C(=O)NC(C)C
13.1% | C=C(NC(C)=O)C(=O)NCC
4.32% | C=C(NC(C)=O)C(=O)NCCC
0% | C=C(NC(C)=O)C(=O)NC(C)CC (stereo not given)
9.46% | C=C(NC(C)=O)C(=O)NC
3.22% | C=C(NC(C)=O)C(=O)NC(C)(C)CC
